In one test the test system is Streptococcus pyogenes. Nature of the test: In vitro antibacterial activity against Streptococcus pyogenes O2A1UC1.
For test [1], the system named is Staphylococcus aureus. Nature of the test: In vitro antibacterial activity against Staphylococcus aureus 011HT1 Nov-R. Format: functional.
Test [2] concerns the target DNA gyrase (Escherichia coli) (UniProt P0AES6+P0AES4). Nature of the test: In vitro inhibition of supercoiling activity of Escherichia coli DNA gyrase as the ratio of IC50 of Novobiocin and IC50 of compound. It is filed as protein-complex assay.
A further test relates to Enterococcus faecium. The test is described as follows: In vitro antibacterial activity against Enterococcus faecium 02D31P2 VanTeiEry-R. Format: functional.
Test [3] deals with Staphylococcus epidermidis. The test is described as follows: In vitro antibacterial activity against Staphylococcus epidermidis 012GO39 OxaTei-R. It is filed as functional.
Test [4] has as its system Staphylococcus aureus. The test is described as follows: In vitro antibacterial activity against Staphylococcus aureus 011GO76 OfloOxaEry-R. Format: functional.
For test [5], the system named is Staphylococcus aureus. Nature of the test: In vitro antibacterial activity against Staphylococcus aureus 011HT3. Format: functional.

Broadly, the MIC is the lowest concentration that inhibits growth of the organism. A lower MIC goes with inhibition by little substance.

Structures are written as SMILES. ≈ marks a conversion by molar mass, not a printed value.

For `CO[C@@H]1[C@@H](OC(=O)c2ccc(C)[nH]2)[C@@H](O)[C@H](Oc2ccc3c(OCCN4CCOCC4)cc(=O)oc3c2C)OC1(C)C`, the MIC against Streptococcus pyogenes amounted to 2.5 µg/mL (≈ 4.26 µM); in the test with Staphylococcus aureus [1] it was 10 µg/mL (≈ 17 µM); with Enterococcus faecium, 20 µg/mL (≈ 34.1 µM); in test [3] it was 0.15 µg/mL (≈ 0.256 µM); in the test with Staphylococcus aureus [4], 0.6 µg/mL (≈ 1.02 µM); against Staphylococcus aureus [5] it was 0.3 µg/mL (≈ 0.511 µM). For the same compound, the Ratio in test [2] turned out to be 0.22.
For `CO[C@@H]1[C@@H](OC(=O)c2ccc(C)[nH]2)[C@@H](O)[C@H](Oc2ccc3c(CN4CCC[C@H]4CO)cc(=O)oc3c2C)OC1(C)C`, the MIC against Streptococcus pyogenes was 2.5 µg/mL (≈ 4.38 µM); against Staphylococcus aureus [1], 10 µg/mL (≈ 17.5 µM); in the test with Enterococcus faecium, 20 µg/mL (≈ 35 µM); in test [3], 1.2 µg/mL (≈ 2.1 µM); in the test on Staphylococcus aureus [4], 1.2 µg/mL (≈ 2.1 µM); in the test on Staphylococcus aureus [5], 0.6 µg/mL (≈ 1.05 µM). The Ratio in test [2] worked out at 0.3.
For the compound `CO[C@@H]1[C@@H](OC(=O)c2ccc(C)[nH]2)[C@@H](O)[C@H](Oc2ccc3c(OCCN(C)C)c(Cl)c(=O)oc3c2C)OC1(C)C`, the MIC in the test with Streptococcus pyogenes is 40 µg/mL (≈ 69.1 µM); in the test on Staphylococcus aureus [1] it was above 40 µg/mL; against Enterococcus faecium it was above 40 µg/mL; in test [3], 5 µg/mL (≈ 8.63 µM); in the test on Staphylococcus aureus [4] it was 20 µg/mL (≈ 34.5 µM); in the test on Staphylococcus aureus [5], 10 µg/mL (≈ 17.3 µM). Besides, in test [2], the Ratio was 0.33.
In the case of `CO[C@@H]1[C@@H](OC(=O)c2ccc(C)[nH]2)[C@@H](O)[C@H](Oc2ccc3c(CN4CCN(C)CC4)cc(=O)oc3c2C)OC1(C)C`, the MIC against Streptococcus pyogenes is 10 µg/mL (≈ 17.6 µM); against Staphylococcus aureus [1] it was 40 µg/mL (≈ 70.2 µM); in the test on Enterococcus faecium, above 40 µg/mL; in test [3] it was 2.5 µg/mL (≈ 4.39 µM); in the test with Staphylococcus aureus [4] it was 5 µg/mL (≈ 8.78 µM); with Staphylococcus aureus [5], 5 µg/mL (≈ 8.78 µM). Further, in test [2], the Ratio was 0.46.
With `CO[C@@H]1[C@@H](OC(=O)c2ccc(C)[nH]2)[C@@H](O)[C@H](Oc2ccc3c(CN4CCNCC4c4ccccc4)cc(=O)oc3c2C)OC1(C)C` (some centres undefined), the MIC in the test with Streptococcus pyogenes stood at 1.2 µg/mL (≈ 1.9 µM); in the test on Staphylococcus aureus [1] it was 5 µg/mL (≈ 7.91 µM); in the test with Enterococcus faecium it was 5 µg/mL (≈ 7.91 µM); in test [3], 0.6 µg/mL (≈ 0.95 µM); in the test with Staphylococcus aureus [4] it was 5 µg/mL (≈ 7.91 µM); in the test on Staphylococcus aureus [5], 1.2 µg/mL (≈ 1.9 µM). Further, the Ratio in test [2] was 0.17.
In the case of `CO[C@@H]1[C@@H](OC(=O)c2ccc(C)[nH]2)[C@@H](O)[C@H](Oc2ccc3c(OCCN(C)C)cc(=O)oc3c2C)OC1(C)C`, the MIC in the test on Streptococcus pyogenes was 10 µg/mL (≈ 18.4 µM); against Staphylococcus aureus [1], 40 µg/mL (≈ 73.4 µM); in the test on Enterococcus faecium, above 40 µg/mL; in test [3] it was 2.5 µg/mL (≈ 4.59 µM); against Staphylococcus aureus [4] it was 5 µg/mL (≈ 9.18 µM); with Staphylococcus aureus [5] it was 2.5 µg/mL (≈ 4.59 µM). Further, the Ratio in test [2] came to 0.57.
On to `CO[C@@H]1[C@@H](OC(=O)c2ccc(C)[nH]2)[C@@H](O)[C@H](Oc2ccc3c(CN4CCNC(c5ccco5)C4)cc(=O)oc3c2C)OC1(C)C` (some centres undefined), for which the minimum inhibitory concentration (MIC) with Streptococcus pyogenes was found to be 1.2 µg/mL (≈ 1.93 µM); in the test on Staphylococcus aureus [1], 10 µg/mL (≈ 16.1 µM); with Enterococcus faecium, 10 µg/mL (≈ 16.1 µM); in test [3], 0.6 µg/mL (≈ 0.965 µM); in the test on Staphylococcus aureus [4], 10 µg/mL (≈ 16.1 µM); with Staphylococcus aureus [5], 0.6 µg/mL (≈ 0.965 µM). For the same compound, in test [2], the Ratio was 0.33.

Source of the values: ChEMBL document CHEMBL1132005, “Structure-activity relationship in two series of aminoalkyl substituted coumarin inhibitors of gyrase B” (1999).
